Drawing on patent US20220281863A1, “COMPOUNDS, COMPOSITIONS AND METHODS OF TREATING DISORDERS” (Reverie Labs, Inc., priority 2019, published 2022), this text covers IC50 for 46 compounds.

Each structure is given as a SMILES string. pIC50: −log10 of the molar value.

A word on the pIC50: it is −log10 of the IC50, conventionally taken in molar units.

T1 sequence (P50750 whole entry): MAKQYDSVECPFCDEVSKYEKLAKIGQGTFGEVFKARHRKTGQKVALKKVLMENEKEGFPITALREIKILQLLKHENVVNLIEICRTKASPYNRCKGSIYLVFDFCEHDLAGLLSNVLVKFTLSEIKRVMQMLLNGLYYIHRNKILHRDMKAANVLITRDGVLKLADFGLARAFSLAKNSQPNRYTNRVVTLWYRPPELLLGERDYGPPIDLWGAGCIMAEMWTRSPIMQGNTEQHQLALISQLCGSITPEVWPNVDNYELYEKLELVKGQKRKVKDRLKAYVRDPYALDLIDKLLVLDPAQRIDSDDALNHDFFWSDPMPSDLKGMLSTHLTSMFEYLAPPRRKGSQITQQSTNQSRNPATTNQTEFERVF
T1 sequence (O60563 whole entry partner): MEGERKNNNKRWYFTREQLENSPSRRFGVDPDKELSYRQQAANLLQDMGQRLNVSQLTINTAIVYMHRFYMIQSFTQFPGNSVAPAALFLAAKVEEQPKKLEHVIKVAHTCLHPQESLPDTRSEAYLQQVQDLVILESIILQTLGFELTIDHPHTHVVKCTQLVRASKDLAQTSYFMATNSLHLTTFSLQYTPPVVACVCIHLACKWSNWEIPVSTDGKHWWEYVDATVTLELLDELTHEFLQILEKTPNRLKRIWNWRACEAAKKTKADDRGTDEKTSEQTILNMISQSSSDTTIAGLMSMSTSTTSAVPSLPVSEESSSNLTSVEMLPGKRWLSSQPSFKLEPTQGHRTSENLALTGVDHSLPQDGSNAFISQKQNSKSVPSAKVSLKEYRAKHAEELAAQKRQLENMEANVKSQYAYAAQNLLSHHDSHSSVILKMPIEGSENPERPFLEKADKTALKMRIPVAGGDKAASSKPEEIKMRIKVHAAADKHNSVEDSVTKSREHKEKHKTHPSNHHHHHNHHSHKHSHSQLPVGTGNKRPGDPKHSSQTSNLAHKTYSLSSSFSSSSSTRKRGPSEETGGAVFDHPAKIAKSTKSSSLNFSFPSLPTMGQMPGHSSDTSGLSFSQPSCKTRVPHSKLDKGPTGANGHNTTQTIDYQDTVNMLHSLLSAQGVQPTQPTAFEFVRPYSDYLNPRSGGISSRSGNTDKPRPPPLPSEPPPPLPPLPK

The test concerns the target T1, CDK9/CycTI (Homo sapiens, UniProt P50750).
T1 construct: purchased Carna biosciences 04-110
Put plainly: In vitro kinase assay (ADP-Glo Kinase Assay Kit), CDK9/CycTI. It is filed as biochemical. The conditions noted are these: 30 ng CDK9/CycTI, 30 μM CDKtide, 10 μM ATP, 2 hours at room temperature; 8 to 10-point dose response (Tier2); read-out: IC50 Score. How it is done:
In vitro kinase assay was performed in white, 384-low volume plates in 5 μl reaction volume consisting of 30 ng CDK9/CycTI (Carna biosciences #04-110), 30 μM CDKtide (Signalchem #C06-58) and 10 μM ATP made in reaction buffer (40 mM Tris, pH 7.5; 20 mM MgCl2; 0.1 mg/ml BSA; 50 μM DTT) at 1 μM & 10 μM compound concentration for Tier1 assay and 8 to 10-point dose response curve for Tier2 assay. After 2 hours of incubation at room temperature, the amounts of […] in the kinase reaction were quantified using ADP-Glo™ Kinase Assay Kit (Promega #V9102). Briefly, 5 μl of ADP-Glo™ reagent was added to stop the kinase reaction and plate was incubated for 40 minutes at room temperature. Subsequently, 10 μl of Kinase Detection Reagent was added and luminescence was recorded after 30 minutes of incubation at room temperature.
The inhibition of kinase activity was determined relative to positive control (2% DMSO) and IC50 was calculated using GraphPad prism software (four parameter-variable slope equation).
In general terms: ADP-Glo first removes unused ATP, then detects ADP through luciferase.
Regarding `CC(=O)N[C@@H]1CC[C@H](C(=O)Nc2nc3ccc4cc(F)ccc4c3s2)C1` [Compound 25], the pIC50 was 6.00 to 6.30.

As for `N[C@@H]1CC[C@H](C(=O)Nc2nc3ccc4cc(F)ccc4c3s2)C1` [Compound 26], the negative logarithm of the IC50 (pIC50) is 7.00 to 9.00.

On to `CC(=O)N1CCCC[C@H]1C(=O)Nc1nc2ccc3cc(F)ccc3c2s1` [Compound 27, (S)-1-acetyl-N-(7-fluoronaphtho[2,1-d]thiazol-2-yl)piperidine-2-carboxamide], for which the pIC50 is 7.00 to 9.00.

For the compound `CC(=O)N1CC(C(=O)Nc2nc3ccc4cc(F)ccc4c3s2)C1` [Compound 28, 1-acetyl-N-(7-fluoronaphtho[2,1-d]thiazol-2-yl)azetidine-3-carboxamide], the negative-log IC50 (pIC50) is 6.30 to 7.00.

`CN1CC(C(=O)Nc2nc3ccc4cc(F)ccc4c3s2)C1` [Compound 29]: the pIC50 was 4.70 to 6.00.

Regarding `CC(C)(C)OC(=O)N[C@H]1CCC[C@@H](C(=O)Nc2nc3ccc4cc(F)ccc4c3s2)C1` [Compound 30, Tert-butyl ((1S,3R)-3-((7-fluoronaphtho[2,1-d]thiazol-2-yl)carbamoyl)cyclohexyl) carbamate], the pIC50 was 6.30 to 7.00.

In the case of `O=C(Nc1nc2ccc3cc(F)ccc3c2s1)[C@H]1CCNC1` [Compound 31, (S)—N-(7-fluoronaphtho[2,1-d]thiazol-2-yl)pyrrolidine-3-carboxamide], the negative-log IC50 (pIC50) is 6.30 to 7.00.

With `C=CC(=O)N[C@H]1CCC[C@@H](C(=O)Nc2nc3ccc4cc(F)ccc4c3s2)C1` [Compound 33, (1R,3S)-3-acrylamido-N-(7-fluoronaphtho[2,1-d]thiazol-2-yl)cyclohexane-1-carboxamide], the pIC50 is 6.30 to 7.00.

In the case of `CC(C)(C)OC(=O)N[C@@H]1CC[C@H](C(=O)Nc2nc3ccc4cc(F)ccc4c3s2)C1` [Compound 34], the pIC50 is 6.30 to 7.00.

As to `CC(C)(C)OC(=O)N1CC[C@@H]1C(=O)Nc1nc2ccc3cc(F)ccc3c2s1` [Compound 35, Tert-butyl (R)-2-((7-fluoronaphtho[2,1-d]thiazol-2-yl)carbamoyl)azetidine-1-carboxylate], the negative logarithm of the IC50 (pIC50) was 4.70 to 6.00.

As to `CC(=O)N1CCC[C@@H](C(=O)Nc2nc3ccc4cc(F)ccc4c3s2)C1` [Compound 38, 1-acetyl-N-(7-fluoronaphtho[2,1-d]thiazol-2-yl)piperidine-3-carboxamide], the negative logarithm of the IC50 (pIC50) was 6.30 to 7.00.

For the compound `CN(C)[C@@H]1CC[C@H](C(=O)Nc2nc3ccc4cc(F)ccc4c3s2)C1` [Compound 39], the pIC50 was 7.00 to 9.00.

As to `CC(C)(C)OC(=O)N1CCC(C(=O)Nc2nc3ccc4cc(F)ccc4c3s2)CC1` [Compound 40], the negative logarithm of the IC50 (pIC50) was 4.70 to 6.00.

`C=CC(=O)N[C@@H]1CCC[C@H](C(=O)Nc2nc3ccc4cc(F)ccc4c3s2)C1` [Compound 41, (1S,3R)-3-acrylamido-N-(7-fluoronaphtho[2,1-d]thiazol-2-yl)cyclohexane-1-carboxamide]: the negative logarithm of the IC50 (pIC50) was 7.00 to 9.00.

Consider `O=C(Nc1nc2ccc3cc(F)ccc3c2s1)[C@H]1CCOC1` [Compound 42], for which the negative logarithm of the IC50 (pIC50) is 6.30 to 7.00.

As to `O=C(Nc1nc2ccc3cc(F)ccc3c2s1)C1CCNCC1` [Compound 43], the pIC50 is 6.30 to 7.00.

In the case of `C=CC(=O)N1CCC[C@@H]1C(=O)Nc1nc2ccc3cc(F)ccc3c2s1` [Compound 44, (R)-1-acryloyl-N-(7-fluoronaphtho[2,1-d]thiazol-2-yl)pyrrolidine-2-carboxamide], the pIC50 was 7.00 to 9.00.

As to `CC(=O)N1CCC[C@H](C(=O)Nc2nc3ccc4cc(F)ccc4c3s2)C1` [Compound 45, (S)-1-acetyl-N-(7-fluoronaphtho[2,1-d]thiazol-2-yl)piperidine-3-carboxamide], the pIC50 is 7.00 to 9.00.

As for `CC(C)(C)OC(=O)N[C@H]1CCC[C@H](C(=O)Nc2nc3ccc4cc(F)ccc4c3s2)C1` [Compound 46], the negative-log IC50 (pIC50) is 6.00 to 6.30.

As to `O=C(Nc1nc2ccc3cc(F)ccc3c2s1)[C@@H]1CCCN1` [Compound 47, (S)—N-(7-fluoronaphtho[2,1-d]thiazol-2-yl)pyrrolidine-2-carboxamide], the pIC50 was 6.00 to 6.30.

In the case of `O=C(Nc1nc2ccc3cc(F)ccc3c2s1)c1ccno1` [Compound 49, N-(7-fluoronaphtho[2,1-d]thiazol-2-yl)isoxazole-5-carboxamide], the pIC50 was 4.70 to 6.00.

For the compound `O=C(Nc1nc2ccc3cc(F)ccc3c2s1)c1cn[nH]c1` [Compound 50, N-(7-fluoronaphtho[2,1-d]thiazol-2-yl)-1H-pyrazole-4-carboxamide], the pIC50 was 4.70 to 6.00.

On to `CC(=O)N1CC[C@H](C(=O)Nc2nc3ccc4cc(F)ccc4c3s2)C1` [Compound 52, (S)-1-acetyl-N-(7-fluoronaphtho[2,1-d]thiazol-2-yl)pyrrolidine-3-carboxamide], for which the pIC50 was 7.00 to 9.00.

Consider `O=C(Nc1nc2ccc3cc(F)ccc3c2s1)c1c[nH]cn1` [Compound 53, N-(7-fluoronaphtho[2,1-d]thiazol-2-yl)-1H-imidazole-4-carboxamide], for which the pIC50 was 4.70 to 6.00.

As for `O=C(Nc1nc2ccc3cc(F)ccc3c2s1)[C@H]1CC[C@@H](N2CCOCC2)C1` [Compound 57, (1S,3R)—N-(7-fluoronaphtho[2,1-d]thiazol-2-yl)-3-morpholinocyclopentane-1-carboxamide], the pIC50 is 7.00 to 9.00.

Turning to `O=C(Nc1nc2ccc3cc(F)ccc3c2s1)C1CNC1` [Compound 58, N-(7-fluoronaphtho[2,1-d]thiazol-2-yl)azetidine-3-carboxamide], the pIC50 was 6.30 to 7.00.

Consider `CC(C)(C)OC(=O)N1CC[C@H](C(=O)Nc2nc3ccc4cc(F)ccc4c3s2)C1` [Compound 59, Tert-butyl (S)-3-((7-fluoronaphtho[2,1-d]thiazol-2-yl)carbamoyl)pyrrolidine-1-carboxylate], for which the negative logarithm of the IC50 (pIC50) was 6.00 to 6.30.

As to `O=C(Nc1nc2ccc3cc(F)ccc3c2s1)[C@@H]1CCOC1` [Compound 60, (R)—N-(7-fluoronaphtho[2,1-d]thiazol-2-yl)tetrahydrofuran-3-carboxamide], the negative logarithm of the IC50 (pIC50) was 7.00 to 9.00.

As to `CC(C)(C)OC(=O)N1CCC[C@H](C(=O)Nc2nc3ccc4cc(F)ccc4c3s2)C1` [Compound 62, tert-butyl (S)-3-((7-fluoronaphtho[2,1-d]thiazol-2-yl)carbamoyl)piperidine-1-carboxylate], the pIC50 was 4.70 to 6.00.

Regarding `N[C@H]1CCC[C@@H](C(=O)Nc2nc3ccc4cc(F)ccc4c3s2)C1` [Compound 63, (1R,3S)-3-amino-N-(7-fluoronaphtho[2,1-d]thiazol-2-yl)cyclohexane-1-carboxamide], the pIC50 is 6.30 to 7.00.

On to `CC(C)(C)C(=O)N1CCC(C(=O)Nc2nc3ccc4cc(F)ccc4c3s2)CC1` [Compound 64], for which the pIC50 was 6.00 to 6.30.

On to `CN1CCC(C(=O)Nc2nc3ccc4cc(F)ccc4c3s2)C1` (stereo not shown) [Compound 65, N-(7-fluoronaphtho[2,1-d]thiazol-2-yl)-1-methylpyrrolidine-3-carboxamide], for which the negative logarithm of the IC50 (pIC50) was 6.30 to 7.00.

As for `O=C(Nc1nc2ccc3cc(F)ccc3c2s1)[C@@H]1CCCCN1` [Compound 68], the pIC50 was 6.00 to 6.30.

As for `CC(=O)N1CC[C@@H]1C(=O)Nc1nc2ccc3cc(F)ccc3c2s1` [Compound 69, (R)-1-acetyl-N-(7-fluoronaphtho[2,1-d]thiazol-2-yl)azetidine-2-carboxamide], the pIC50 was 7.00 to 9.00.

As for `CC(=O)N(C)[C@@H]1CC[C@H](C(=O)Nc2nc3ccc4cc(F)ccc4c3s2)C1` [Compound 71, (1S,3R)—N-(7-fluoronaphtho[2,1-d]thiazol-2-yl)-3-(N-methylacetamido)cyclopentane-1-carboxamide], the negative logarithm of the IC50 (pIC50) is 7.00 to 9.00.

In the case of `CC(=O)N1CC[C@H]1C(=O)Nc1nc2ccc3cc(F)ccc3c2s1` [Compound 73, (S)-1-acetyl-N-(7-fluoronaphtho[2,1-d]thiazol-2-yl)azetidine-2-carboxamide], the pIC50 was 4.70 to 6.00.

For the compound `O=C(Nc1nc2ccc3cc(F)ccc3c2s1)[C@H]1CCCN1` [Compound 74], the pIC50 was 6.00 to 6.30.

Take `O=C(CCl)N[C@@H]1CCC[C@H](C(=O)Nc2nc3ccc4cc(F)ccc4c3s2)C1` [Compound 75]: the pIC50 is 7.00 to 9.00.

As to `O=C(Nc1nc2ccc3cc(F)ccc3c2s1)[C@@H]1CCNC1` [Compound 77], the negative-log IC50 (pIC50) was 4.70 to 6.00.

With `O=C(Nc1nc2ccc3cc(F)ccc3c2s1)[C@@H]1CCCO1` [Compound 78, (S)—N-(7-fluoronaphtho[2,1-d]thiazol-2-yl)tetrahydrofuran-2-carboxamide], the negative logarithm of the IC50 (pIC50) was 6.30 to 7.00.

On to `CC(=O)N[C@H]1CCC[C@@H](C(=O)Nc2nc3ccc4cc(F)ccc4c3s2)C1` [Compound 79, (1R,3S)-3-acetamido-N-(7-fluoronaphtho[2,1-d]thiazol-2-yl)cyclohexane-1-carboxamide], for which the pIC50 is 7.00 to 9.00.

On to `O=C(Nc1nc2ccc3cc(F)ccc3c2s1)c1nncs1` [Compound 80], for which the pIC50 is 4.70 to 6.00.

Consider `CC(=O)N[C@@H]1CCC[C@@H](C(=O)Nc2nc3ccc4cc(F)ccc4c3s2)C1` [Compound 81], for which the negative-log IC50 (pIC50) is 6.00 to 6.30.

Regarding `CC(C)(C)OC(=O)N1CC[C@H]1C(=O)Nc1nc2ccc3cc(F)ccc3c2s1` [Compound 84, Tert-butyl (S)-2-((7-fluoronaphtho[2,1-d]thiazol-2-yl)carbamoyl)azetidine-1-carboxylate], the negative-log IC50 (pIC50) is 4.70 to 6.00.

For `O=C(Nc1nc2ccc3cc(F)ccc3c2s1)[C@@H]1CCN1` [Compound 85, (S)—N-(7-fluoronaphtho[2,1-d]thiazol-2-yl)azetidine-2-carboxamide], the pIC50 is 6.30 to 7.00.

In the case of `CC(=O)N1CCC(C(=O)Nc2nc3ccc4cc(F)ccc4c3s2)CC1` [Compound 86], the pIC50 was 7.00 to 9.00.
